Measurements taken from paper PMC11274453, “Structural and Thermodynamic Insights into Dimerization Interfaces of Drosophila Glutathione Transferases” (Biomolecules, 2024).

How the values were obtained:
DmGSTE1 [1] = target: T1, DmGSTE1 (Drosophila melanogaster, UniProt Q7KK90); assay: spectrophotometric CDNB conjugation, […] nm, Michaelis-Menten fit; format: biochemical; settings: 2 mM GSH; 100 mM sodium phosphate pH 6.5; 25 °C; 50 nM enzyme
T1 construct: gene GstE1; recombinant, codon-optimized gene in pET28a (NdeI/SacI), E. coli; homodimer; residues Ser2-Asp223 described in the structure
T1 sequence (Q7KK90 1-224): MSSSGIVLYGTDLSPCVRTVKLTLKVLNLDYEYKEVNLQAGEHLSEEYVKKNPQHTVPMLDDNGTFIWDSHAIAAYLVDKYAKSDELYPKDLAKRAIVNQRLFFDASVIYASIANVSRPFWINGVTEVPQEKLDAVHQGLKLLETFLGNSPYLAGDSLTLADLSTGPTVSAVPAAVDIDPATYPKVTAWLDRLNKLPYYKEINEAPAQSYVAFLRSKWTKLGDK

DmGSTE1 [2] = target: T1, DmGSTE1; assay: X-ray crystal structure, […] Å; format: binding; settings: G site; mixture with reduced glutathione at equal occupancies; sulfoxide H-bonds Ser14
[3] = target: the molecule itself; assay: crystal structure; sitting-drop vapour diffusion at 4 °C; 15 mg/mL DmGSTE1 in 20 mM Tris-HCl pH 7.4; 20% w/v PEG 8000, 100 mM MES pH 6.0, 200 mM Ca acetate; space group P212121, one dimer in the asymmetric unit; glutathione bound

O=[N+]([O-])c1ccc(Cl)c([N+](=O)[O-])c1 [CDNB, 1-chloro-2,4-dinitrobenzene]
Km (DmGSTE1 [1]): 15 ± 4 µM

N[C@@H](CCC(=O)N[C@@H](CSO)C(=O)NCC(=O)O)C(=O)O [GS8]
X-ray crystal structure, 1.80 Å (DmGSTE1 [2]): occupied by a mixture of glutathione and glutathione sulfoxide refined with equal occupancies

B1: Drosophila melanogaster GSTE1 (enzyme)
chain: MSSSGIVLYGTDLSPCVRTVKLTLKVLNLDYEYKEVNLQAGEHLSEEYVKKNPQHTVPMLDDNGTFIWDSHAIAAYLVDKYAKSDELYPKDLAKRAIVNQRLFFDASVIYASIANVSRPFWINGVTEVPQEKLDAVHQGLKLLETFLGNSPYLAGDSLTLADLSTGPTVSAVPAAVDIDPATYPKVTAWLDRLNKLPYYKEINEAPAQSYVAFLRSKWTKLGDK
notes: Glutathione S-transferase E1 (Epsilon class), Drosophila melanogaster; the crystal model is described as Ser2-Tyr88 (N-terminal thioredoxin domain) and Pro89-Asp223 (C-terminal domain); Cloned in pET28a between NdeI and SacI; Crystallised with glutathione / glutathione sulfoxide in the G site; also called DmGSTE1; source: E. coli, purified (GSTrap Fast Flow, eluted with 10 mM reduced glutathione, …)
stoichiometry N [3]: 2
